{"source": "patent US20190100731A1", "about": "“EX-VIVO […] MODEL, METHODS OF PRODUCING SAME AND USES THEREOF” (The State of Israel, Ministry of Agriculture & Rural …, priority 2016, published 2019)", "key": {"[1]": {"test_system": "IL-6", "assay": "IL-6 production (ELISA) in ex-vivo intestinal biopsies", "assay_type": "cell-based, human", "conditions": "D/C treated biopsies of patient P6; 18 hours; pure CBD 25 μM / 16.6 μM (FIG. 5)", "description": "(§1) Biopsies (3 mm3) obtained from inflamed or healthy intestines and placed in PBS were treated with a Dispase (1 U/ml, Cat # 07923, StemCell Technologies Inc.) and Collagenase Type 1 (0.5 mg/ml with an activity of 0.5-2 U/mg Cat # 07902, StemCell Technologies Inc.) solution. Tubes were then incubated for 2-3h at 37° C.\nAfter incubation, the tubes containing the biopsies were centrifuged at 5000 rpm for 1 minute. Then the supernatants were removed and tissues were washed three times with Hank's balance salt solution (HBSS). After each wash tubes were centrifuged as mentioned above. Then the tissues were placed on small Petri dish and cut into 2-3 pieces with a clean scalpel. […] The following cytokines were measured: TNF Alfa (the supernatant was taken after 1-3 h), for the rest of the cytokines and interleukins supernatant was analyzed after 16 hours. The following factors were analyzed: IFN gamma, TFG beta, IL-10, IL-23/IL-23R, IL-12, IL-1 (IL 113), IL 2, IL-8/IL-8R, IL-6, IL-17, IL-13, IL-5, IL-4, IL-3. […] After all samples are taken, tissue viability will be assessed by addition of Alamar blue (Risazurin) as described below. […]"}, "[2]": {"test_system": "IL-8", "assay": "IL-8 secretion (ELISA) in D/C-treated ex-vivo intestinal biopsies", "assay_type": "cell-based, human", "design": "IL-8 secretion Value: unit not given here", "description": "as §1\nAfter incubation, the tubes containing the biopsies were centrifuged at 5000 rpm for 1 minute. Then the supernatants were removed and tissues were washed three times with Hank's balance salt solution (HBSS). After each wash tubes were centrifuged as mentioned above. Then the tissues were placed on small Petri dish and cut into 2-3 pieces with a clean scalpel. Explants were cultured in groups of 2-3 with the villus surface facing up on microporous membranes (0.45-m pore size) contained in either Millicell-HA or organotypic tissue culture inserts (Millipore) placed inside 6-well plastic tissue culture dishes (Costar 3506) along with 1.5 ml of tissue culture medium. The tissue culture medium was Dulbecco's modified Eagle's medium supplemented with 10% heat-inactivated fetal calf serum, penicillin (100units/ml), streptomycin (100 μg/ml), leupeptin (50 μg/ml), PMSF (1 mM), soybean trypsin inhibitor (50 μg/ml). In cases dexamethasone (DX) was included in the media, its concentration was 200 μg/ml. This is followed by treating the samples with Control and extracts treatments (cannabis or other). In cases TNF-α is added to induce ILs expression the concentration was 50 μg/ml. Cultures are then incubated at 37° C. and gassed hourly with 95% oxygen and 5% carbon dioxide. For evaluation of TNF-α expression, supernatants are taken after 1 h of incubation. For other ILs, supernatants are taken after overnight incubation unless mentioned differently. The supernatants from biopsies are used for determination of cytokine profile by measuring their levels using commercial ELISA Kits. The following cytokines were measured: TNF Alfa (the supernatant was taken after 1-3 h), for the rest of the cytokines and interleukins supernatant was analyzed after 16 hours. The following factors were analyzed: IFN gamma, TFG beta, IL-10, IL-23/IL-23R, IL-12, IL-1 (IL 113), IL 2, IL-8/IL-8R, IL-6, IL-17, IL-13, IL-5, IL-4, IL-3. Levels of secreted factors from inflamed and healthy tissue and from cannabis treated and not treated tissue were compared. After all samples are taken, tissue viability will be assessed by addition of Alamar blue (Risazurin) as described below.\nBiopsies obtained from both healthy and sick intestinal samples of two patients were cultured overnight incubation using the full protocol (D/C) described in material and methods section hereinabove. Seven different cytokines were evaluated following overnight incubation using specific ELISA kits manufactured by R&D Systems.\nThe cytokines tested included TNF-α, IL-6, IL-8, IL-10, IL-12, IL-17 and IL-27. In addition to the ethanolic cannabis extract was tested for its ability to reduce inflammation. After supernatant sampling, additional media was added to the wells and Resazurin (alamar blue) viability assay was carried out. […] Responsive cytokines that show significant levels of expression (FIGS. 1A-F) on one hand vs. other ILs in which basal level were obtained which didn't allow a clear conclusion (FIGS. 2A-D).\nSeveral more experiments were done to corroborate the above results. These are summarized in Table 1 below(C2F and F7 and dexamethasone)."}, "[3]": {"conditions": "biopsy PH-13-H: healthy patient 13, healthy tissue"}, "[4]": {"conditions": "biopsy PH-15-H: healthy patient 15, healthy tissue"}, "[5]": {"conditions": "biopsy PS-3-H: sick patient 3, healthy tissue"}, "[6]": {"conditions": "biopsy PS-3-S: sick patient 3, sick tissue"}, "[7]": {"conditions": "biopsy PS-4-H: sick patient 4, healthy tissue"}, "[8]": {"conditions": "biopsy PS-4-S: sick patient 4, sick tissue"}, "[9]": {"conditions": "biopsy PS-7-H: sick patient 7, healthy tissue"}, "[10]": {"conditions": "biopsy PS-7-S: sick patient 7, sick tissue"}, "[11]": {"conditions": "biopsy PS-8-H: sick patient 8, healthy tissue"}, "[12]": {"conditions": "biopsy PS-11-H: sick patient 11, healthy tissue"}, "[13]": {"conditions": "biopsy PS-11-S: sick patient 11, sick tissue"}, "[14]": {"conditions": "biopsy PS-12-H: sick patient 12, healthy tissue"}, "[15]": {"conditions": "biopsy PS-12-S: sick patient 12, sick tissue"}, "[16]": {"conditions": "biopsy PS-14-H: sick patient 14, healthy tissue"}, "[17]": {"conditions": "biopsy PS-14-S: sick patient 14, sick tissue"}, "[18]": {"conditions": "biopsy PS-16-H: sick patient 16, healthy tissue"}, "[19]": {"conditions": "biopsy PS-16-S: sick patient 16, sick tissue"}, "[20]": {"conditions": "biopsy PS-17-H: sick patient 17, healthy tissue"}, "[21]": {"conditions": "biopsy PS-17-S: sick patient 17, sick tissue"}, "[22]": {"conditions": "biopsy PS-18-H: sick patient 18, healthy tissue"}, "[23]": {"conditions": "biopsy PS-18-S: sick patient 18, sick tissue"}, "[24]": {"conditions": "biopsy PS-19-H: sick patient 19, healthy tissue"}, "[25]": {"conditions": "biopsy PS-19-S: sick patient 19, sick tissue"}}, "note": "“Also recorded” adds a separate entry of the source.", "data": [{"molecule": "C=C(C)[C@@H]1CCC(C)=C[C@H]1c1c(O)cc(CCCCC)cc1O", "note": "[CBD, Cannabidiol]", "values": [{"measurement": "anti-inflammatory activity (IL-6 production)", "setting": "[1]", "result": "doesn't harbor any anti-inflammatory activity; also recorded: no anti-inflammatory activity"}]}, {"molecule": "C[C@@H]1C[C@H]2[C@@H]3CCC4=CC(=O)C=C[C@]4(C)[C@@]3(F)[C@@H](O)C[C@]2(C)[C@@]1(O)C(=O)CO", "note": "[Dexamethasone, dexamethasone]", "values": [{"measurement": "IL-8 secretion % Reduction from NT", "setting": "[2]; [3]", "result": "−1.1", "unit": "%"}, {"measurement": "IL-8 secretion Value", "setting": "[2]; [3]", "result": 844.6}, {"measurement": "IL-8 secretion % Reduction from NT", "setting": "[2]; [4]", "result": 46.4, "unit": "%"}, {"measurement": "IL-8 secretion Value", "setting": "[2]; [4]", "result": 451.9}, {"measurement": "IL-8 secretion % Reduction from NT", "setting": "[2]; [5]", "result": 32.4, "unit": "%"}, {"measurement": "IL-8 secretion Value", "setting": "[2]; [5]", "result": 670.1}, {"measurement": "IL-8 secretion % Reduction from NT", "setting": "[2]; [6]", "result": 17.5, "unit": "%"}, {"measurement": "IL-8 secretion Value", "setting": "[2]; [6]", "result": 742.6}, {"measurement": "IL-8 secretion % Reduction from NT", "setting": "[2]; [7]", "result": 4.3, "unit": "%"}, {"measurement": "IL-8 secretion Value", "setting": "[2]; [7]", "result": 915.4}, {"measurement": "IL-8 secretion % Reduction from NT", "setting": "[2]; [8]", "result": 78.3, "unit": "%"}, {"measurement": "IL-8 secretion Value", "setting": "[2]; [8]", "result": 216.9}, {"measurement": "IL-8 secretion % Reduction from NT", "setting": "[2]; [9]", "result": 14.7, "unit": "%"}, {"measurement": "IL-8 secretion Value", "setting": "[2]; [9]", "result": 745.1}, {"measurement": "IL-8 secretion % Reduction from NT", "setting": "[2]; [10]", "result": "−5.6", "unit": "%"}, {"measurement": "IL-8 secretion Value", "setting": "[2]; [10]", "result": 793.9}, {"measurement": "IL-8 secretion % Reduction from NT", "setting": "[2]; [11]", "result": 69.5, "unit": "%"}, {"measurement": "IL-8 secretion Value", "setting": "[2]; [11]", "result": 215.3}, {"measurement": "IL-8 secretion % Reduction from NT", "setting": "[2]; [12]", "result": 94.8, "unit": "%"}, {"measurement": "IL-8 secretion Value", "setting": "[2]; [12]", "result": 34.9}, {"measurement": "IL-8 secretion % Reduction from NT", "setting": "[2]; [13]", "result": 83.3, "unit": "%"}, {"measurement": "IL-8 secretion Value", "setting": "[2]; [13]", "result": 74.2}, {"measurement": "IL-8 secretion % Reduction from NT", "setting": "[2]; [14]", "result": 43.7, "unit": "%"}, {"measurement": "IL-8 secretion Value", "setting": "[2]; [14]", "result": 530.6}, {"measurement": "IL-8 secretion % Reduction from NT", "setting": "[2]; [15]", "result": 4.0, "unit": "%"}, {"measurement": "IL-8 secretion Value", "setting": "[2]; [15]", "result": 817.8}, {"measurement": "IL-8 secretion % Reduction from NT", "setting": "[2]; [16]", "result": 44.2, "unit": "%"}, {"measurement": "IL-8 secretion Value", "setting": "[2]; [16]", "result": 485.8}, {"measurement": "IL-8 secretion % Reduction from NT", "setting": "[2]; [17]", "result": 24.1, "unit": "%"}, {"measurement": "IL-8 secretion Value", "setting": "[2]; [17]", "result": 666.8}, {"measurement": "IL-8 secretion % Reduction from NT", "setting": "[2]; [18]", "result": 38.3, "unit": "%"}, {"measurement": "IL-8 secretion Value", "setting": "[2]; [18]", "result": 166.5}, {"measurement": "IL-8 secretion % Reduction from NT", "setting": "[2]; [19]", "result": 83.6, "unit": "%"}, {"measurement": "IL-8 secretion Value", "setting": "[2]; [19]", "result": 96.7}, {"measurement": "IL-8 secretion % Reduction from NT", "setting": "[2]; [20]", "result": 68.9, "unit": "%"}, {"measurement": "IL-8 secretion Value", "setting": "[2]; [20]", "result": 303.5}, {"measurement": "IL-8 secretion % Reduction from NT", "setting": "[2]; [21]", "result": 0.5, "unit": "%"}, {"measurement": "IL-8 secretion Value", "setting": "[2]; [21]", "result": 1064.0}, {"measurement": "IL-8 secretion % Reduction from NT", "setting": "[2]; [22]", "result": 66.4, "unit": "%"}, {"measurement": "IL-8 secretion Value", "setting": "[2]; [22]", "result": 331.0}, {"measurement": "IL-8 secretion % Reduction from NT", "setting": "[2]; [23]", "result": 36.1, "unit": "%"}, {"measurement": "IL-8 secretion Value", "setting": "[2]; [23]", "result": 484.9}, {"measurement": "IL-8 secretion % Reduction from NT", "setting": "[2]; [24]", "result": 32.6, "unit": "%"}, {"measurement": "IL-8 secretion Value", "setting": "[2]; [24]", "result": 86.0}, {"measurement": "IL-8 secretion % Reduction from NT", "setting": "[2]; [25]", "result": 64.2, "unit": "%"}, {"measurement": "IL-8 secretion Value", "setting": "[2]; [25]", "result": 80.5}]}]}
